The record followed here is patent US20200384116A1, “SELF-ASSEMBLING VERTEPORFIN AMPHIPHILES (SAVA) FOR LOCAL CANCER THERAPY” (THE JOHNS HOPKINS UNIVERSITY, priority 2016, published 2020).

What all share (format): cell-based
Assay [1] relates to malignant meningioma cell line IOMM-Lee. Briefly: MTT cell survival, IOMM-Lee. How it is done:
(§1) Cells tested were subjected to the following protocol: Day 1: 7000 cells per well were seeded in a 96-well plate. […]
(§2) MTT stock solution (5 mg/ml) is added to each culture being assayed to equal one-tenth the original culture volume and incubated for 4 hr. At the end of the incubation period the medium is removed the converted dye is solubilized with 100% isopropanol. Absorbance of converted dye is measured at a wavelength of 570 nm.
(§3) The malignant meningioma cell lines KT21-MG1 (FIG. 7), IOMM-Lee (FIG. 8), the primary patient-derived GBM cell lines, JHGB612 and GBM1A, and a patient-derived primary chordoma cell line, JHC7 (FIG. 9) were all tested with a SAVA composition of the present invention, using the protocol of Example 3. All should significant dose-dependent effect on cell survival when compared to controls.

Assay [2] relates to malignant meningioma cell line KT21-MG1. Description: MTT cell survival, KT21-MG1. How it is done:
as §1, §2, §3

The subject of assay [3] is primary patient-derived GBM cell line JHGB612. Briefly: MTT cell survival, JHGB612. As to conditions: dose-dependent, vs controls. The procedure:
(§4) Cells tested were subjected to the following protocol: Day 1: 7000 cells per well were seeded in a 96-well plate. Day 3: cells were treated with 12.5 μM of Verteporfin (treatment group) and its equivalent DMSO concentration (control group) in 200 μl of media/well. Proliferation was assessed using MTT at Day 8, 9 using the following method:
as §2, §3

Assay [4] deals with primary patient-derived GBM cell line GBM1A. Briefly: MTT cell survival, GBM1A. As to conditions: dose-dependent, vs controls. How it is done: as §4, §2, §3
Assay [5] concerns SW480, PANC-1, MDA-MD-231, MDA-MD-468 and HELA cell lines. Briefly: MTT proliferation assay, non-CNS tumor cell lines. As to conditions: 12.5 μM, 5 or 6 days, in words. The procedure:
as §4, §2
The cell lines SW480 (colon adenocarcinoma), PANC-1 (pancreatic cancer), MDA-MD-231 (breast adenocarcinoma), MDA-MD-468 (metastatic breast carcinoma triple negative), and HELA (cervical carcinoma) were treated with 12.5 μM of the SAVA composition, Ver-RGDR, or DMSO (solvent control) for 5 days (FIG. 5a) or 6 days (FIG. 5b) in culture. Cell proliferation was then assessed using the MTT protocol. […] P-values: All cell lines tested at day 5 and 6 had p<0.0001 compared to their corresponding DMSO control. The results were statistically significant.
In general terms: Formazan colour is commonly taken as a measure of viable cells.

For assay [6], the system named is patient-derived primary chordoma cell line JHC7. Briefly: MTT cell survival, JHC7. As to conditions: dose-dependent, vs controls. The procedure:
as §4, §2, §3

Take verteporfin: the cell survival entry in assay [1] (3 days of treatment), in assay [1] (5 days of treatment), in assay [2] (3 days of treatment) and in assay [2] (5 days of treatment) was “decreases cell survival” in each case. Further, the “effect on proliferation and cell survival” value in assay [3] is “profound dose dependent effect on glioblastoma proliferation and cell survival”; in assay [4] it was “profound dose dependent effect on glioblastoma proliferation and cell survival”. Also, in assay [5], the “proliferation of non-CNS tumor cells” value is “decreases proliferation”. In addition, the “effect on cell survival and proliferation” value in assay [6] was “dose dependent effect on chordoma cell survival and proliferation”.
